# From ChEMBL document CHEMBL4229379, “Synthesis and structure-activity relationship of novel bisindole amidines active against MDR Gram-positive and Gram-negative bacteria” (Eur J Med Chem, 2018)
# Assays:
# [1] = Cytotoxicity against HEK293T cells assessed as reduction in cell viability after 48 hrs by MTS assay; assay type: cell-based, HEK-293T; details: human
# Pseudomonas aeruginosa [2] = assay: Antibacterial activity against Pseudomonas aeruginosa ATCC 27853 after 18 hrs by CLSI broth microdilution method; assay type: functional; details: ATCC 27853, 18 h
# Escherichia coli [3] = assay: Antibacterial activity against extended-spectrum beta-lactamase harboring Escherichia coli 12-15 after 18 hrs by CLSI broth microdilution method; assay type: functional; details: 12-15, 18 h
# Klebsiella aerogenes = assay: Antibacterial activity against Enterobacter aerogenes ATCC 13048 after 18 hrs by CLSI broth microdilution method; assay type: functional; details: ATCC 13048, 18 h
# Escherichia coli [4] = assay: Antibacterial activity against extended-spectrum beta-lactamase deficient Escherichia coli ATCC 25922 after 18 hrs by CLSI broth microdilution method; assay type: functional; details: ATCC 25922, 18 h
# Klebsiella pneumoniae [5] = assay: Antibacterial activity against extended-spectrum beta-lactamase deficient Klebsiella pneumoniae 7 after 18 hrs by CLSI broth microdilution method; assay type: functional; details: Klebsiella pneumoniae, 7, 18 h
# Staphylococcus aureus [6] = assay: Antibacterial activity against methicillin-sensitive Staphylococcus aureus ATCC 29213 after 18 hrs by CLSI broth microdilution method; assay type: functional; details: ATCC 29213, 18 h
# [7] = system: Staphylococcus epidermidis; assay: Antibacterial activity against methicillin-resistant Staphylococcus epidermidis 12-8 after 18 hrs by CLSI broth microdilution method; assay type: functional; details: 12-8, 18 h
# Enterococcus faecium [8] = assay: Antibacterial activity against vancomycin-resistant Enterococcus faecium 12-1 after 18 hrs by CLSI broth microdilution method; assay type: functional; details: 12-1, 18 h
# Klebsiella pneumoniae [9] = assay: Antibacterial activity against extended-spectrum beta-lactamase harboring Klebsiella pneumoniae ATCC 700603 after 18 hrs by CLSI broth microdilution method; assay type: functional; details: Klebsiella pneumoniae, 700603, 18 h
# Providencia rettgeri = assay: Antibacterial activity against Providencia rettgeri ATCC 31052 after 18 hrs by CLSI broth microdilution method; assay type: functional; details: ATCC 31052, 18 h
# Proteus vulgaris = assay: Antibacterial activity against Proteus vulgaris ATCC 29905 after 18 hrs by CLSI broth microdilution method; assay type: functional; details: ATCC 29905, 18 h
# Staphylococcus aureus [10] = assay: Antibacterial activity against methicillin-sensitive Staphylococcus aureus 12-28 after 18 hrs by CLSI broth microdilution method; assay type: functional; details: 12-28, 18 h
# Pseudomonas aeruginosa [11] = assay: Antibacterial activity against Pseudomonas aeruginosa 12-16 after 18 hrs by CLSI broth microdilution method; assay type: functional; details: 12-16, 18 h
# [12] = system: Acinetobacter calcoaceticus; assay: Antibacterial activity against Acinetobacter calcoaceticus ATCC 19606 after 18 hrs by CLSI broth microdilution method; assay type: functional; details: ATCC 19606, 18 h
# Pseudomonas aeruginosa [13] = assay: Antibacterial activity against Pseudomonas aeruginosa PAO1 after 18 hrs by CLSI broth microdilution method; assay type: functional; details: PAO1, 18 h
# [14] = system: Staphylococcus epidermidis; assay: Antibacterial activity against methicillin-sensitive Staphylococcus epidermidis 12-6 after 18 hrs by CLSI broth microdilution method; assay type: functional; details: 12-6, 18 h
# Staphylococcus aureus [15] = assay: Antibacterial activity against methicillin-sensitive Staphylococcus aureus 15 after 18 hrs by CLSI broth microdilution method; assay type: functional; details: Staphylococcus aureus, 15, 18 h
# [16] = system: Staphylococcus epidermidis; assay: Antibacterial activity against methicillin-sensitive Staphylococcus epidermidis ATCC 12228 after 18 hrs by CLSI broth microdilution method; assay type: functional; details: ATCC 12228, 18 h
# Enterococcus faecalis [17] = assay: Antibacterial activity against vancomycin-resistant Enterococcus faecalis ATCC 51299 after 18 hrs by CLSI broth microdilution method; assay type: functional; details: ATCC 51299, 18 h
# Klebsiella pneumoniae [18] = assay: Antibacterial activity against extended-spectrum beta-lactamase deficient Klebsiella pneumoniae 12-4 after 18 hrs by CLSI broth microdilution method; assay type: functional; details: 12-4, 18 h
# Proteus mirabilis = assay: Antibacterial activity against Proteus mirabilis 12-6 after 18 hrs by CLSI broth microdilution method; assay type: functional; details: 12-6, 18 h
# Enterococcus faecalis [19] = assay: Antibacterial activity against vancomycin-sensitive Enterococcus faecalis ATCC 29212 after 18 hrs by CLSI broth microdilution method; assay type: functional; details: ATCC 29212, 18 h
# Enterococcus faecium [20] = assay: Antibacterial activity against vancomycin-sensitive Enterococcus faecium 12-3 after 18 hrs by CLSI broth microdilution method; assay type: functional; details: 12-3, 18 h
# Klebsiella pneumoniae [21] = assay: Antibacterial activity against new delhi metallo-beta-lactamase-1 harboring Klebsiella pneumoniae ATCC BAA-2146 after 18 hrs by CLSI broth microdilution method; assay type: functional; details: ATCC BAA-2146, 18 h
# Escherichia coli [22] = assay: Antibacterial activity against extended-spectrum beta-lactamase deficient Escherichia coli 1515 after 18 hrs by CLSI broth microdilution method; assay type: functional; details: Escherichia coli, 1515, 18 h
# Serratia marcescens = assay: Antibacterial activity against Serratia marcescens ATCC 21074 after 18 hrs by CLSI broth microdilution method; assay type: functional; details: ATCC 21074, 18 h
# Enterococcus faecium [23] = assay: Antibacterial activity against vancomycin-resistant Enterococcus faecium ATCC 700221 after 18 hrs by CLSI broth microdilution method; assay type: functional; details: ATCC 700221, 18 h
# Staphylococcus aureus [24] = assay: Antibacterial activity against methicillin-resistant Staphylococcus aureus 12-33 after 18 hrs by CLSI broth microdilution method; assay type: functional; details: 12-33, 18 h
# Klebsiella pneumoniae [25] = assay: Antibacterial activity against extended-spectrum beta-lactamase harboring Klebsiella pneumoniae 12-8 after 18 hrs by CLSI broth microdilution method; assay type: functional; details: 12-8, 18 h
# Staphylococcus aureus [26] = assay: Antibacterial activity against methicillin-resistant Staphylococcus aureus ATCC 33591 after 18 hrs by CLSI broth microdilution method; assay type: functional; details: ATCC 33591, 18 h
# [27] = system: Stenotrophomonas maltophilia; assay: Antibacterial activity against Stenotrophomonas maltophilia ATCC 13636 after 18 hrs by CLSI broth microdilution method; assay type: functional; details: ATCC 13636, 18 h
# Enterobacter cloacae = assay: Antibacterial activity against Enterobacter cloacae ATCC 43560 after 18 hrs by CLSI broth microdilution method; assay type: functional; details: ATCC 43560, 18 h
# Escherichia coli [28] = assay: Antibacterial activity against extended-spectrum beta-lactamase deficient Escherichia coli 12-14 after 18 hrs by CLSI broth microdilution method; assay type: functional; details: 12-14, 18 h
# Citrobacter freundii = assay: Antibacterial activity against Citrobacter freundii ATCC 43864 after 18 hrs by CLSI broth microdilution method; assay type: functional; details: ATCC 43864, 18 h
# Enterococcus faecalis [29] = assay: Antibacterial activity against vancomycin-resistant Enterococcus faecalis 09-9 after 18 hrs by CLSI broth microdilution method; assay type: functional; details: 09-9, 18 h
# Enterococcus faecalis [30] = assay: Antibacterial activity against vancomycin-sensitive Enterococcus faecalis 12-5 after 18 hrs by CLSI broth microdilution method; assay type: functional; details: 12-5, 18 h
smiles,measurement,setting,value
CN(C)C(=N)c1ccc2cc(-c3cnc(-c4cc5ccc(C(=N)N(C)C)cc5[nH]4)s3)[nH]c2c1,CC50 at 48 h,[1],2.01 µg/mL
same,MIC,Pseudomonas aeruginosa [2],16 µg/mL
same,MIC,Escherichia coli [3],2 µg/mL
same,MIC,Klebsiella aerogenes,4 µg/mL
same,MIC,Escherichia coli [4],2 µg/mL
same,MIC,Klebsiella pneumoniae [5],4 µg/mL
same,MIC,Staphylococcus aureus [6],0.25 µg/mL
same,MIC,[7],0.25 µg/mL
same,MIC,Enterococcus faecium [8],1 µg/mL
same,MIC,Klebsiella pneumoniae [9],8 µg/mL
same,MIC,Providencia rettgeri,2 µg/mL
same,MIC,Proteus vulgaris,4 µg/mL
same,MIC,Staphylococcus aureus [10],0.5 µg/mL
same,MIC,Pseudomonas aeruginosa [11],> 64 µg/mL
same,MIC,[12],16 µg/mL
same,MIC,Pseudomonas aeruginosa [13],> 64 µg/mL
same,MIC,[14],0.125 µg/mL
same,MIC,Staphylococcus aureus [15],0.25 µg/mL
same,MIC,[16],0.12 µg/mL
same,MIC,Enterococcus faecalis [17],1 µg/mL
same,MIC,Klebsiella pneumoniae [18],4 µg/mL
same,MIC,Proteus mirabilis,8 µg/mL
same,MIC,Enterococcus faecalis [19],1 µg/mL
same,MIC,Enterococcus faecium [20],2 µg/mL
same,MIC,Klebsiella pneumoniae [21],4 µg/mL
same,MIC,Escherichia coli [22],2 µg/mL
same,MIC,Serratia marcescens,8 µg/mL
same,MIC,Enterococcus faecium [23],1 µg/mL
same,MIC,Staphylococcus aureus [24],1 µg/mL
same,MIC,Klebsiella pneumoniae [25],4 µg/mL
same,MIC,Staphylococcus aureus [26],0.25 µg/mL
same,MIC,[27],16 µg/mL
same,MIC,Enterobacter cloacae,2 µg/mL
same,MIC,Escherichia coli [28],2 µg/mL
same,MIC,Citrobacter freundii,4 µg/mL
same,MIC,Enterococcus faecalis [29],0.5 µg/mL
same,MIC,Enterococcus faecalis [30],2 µg/mL
